Patent publication US8614327B2 (Vertex Pharmaceuticals Incorporated, priority 2004, dated 2013)

Target: T1, ΔF508-CFTR (Homo sapiens, UniProt P13569, DEL508-508)
T1 construct: expressed in transfected cells
Experiment: Membrane potential optical (FRET/VIPR) assay, identification of potentiator compounds
Assay type: cell-based
Conditions: Table 3, assay not given; for % Activity: relative efficacy
How it was run: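 Double-addition potentiator screen: compound delivered in gluconate-substituted Cl^--free medium, membrane potential followed via CC2-DMPE/DiSBAC2(3) FRET on VIPR. Cells were ΔF508-CFTR-expressing NIH3T3 mouse fibroblasts, held 2 h at 37° C. then 24 h at 27° C. before assay.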

T1 sequence (P13569 with tags, fused parts or gaps DEL508-508): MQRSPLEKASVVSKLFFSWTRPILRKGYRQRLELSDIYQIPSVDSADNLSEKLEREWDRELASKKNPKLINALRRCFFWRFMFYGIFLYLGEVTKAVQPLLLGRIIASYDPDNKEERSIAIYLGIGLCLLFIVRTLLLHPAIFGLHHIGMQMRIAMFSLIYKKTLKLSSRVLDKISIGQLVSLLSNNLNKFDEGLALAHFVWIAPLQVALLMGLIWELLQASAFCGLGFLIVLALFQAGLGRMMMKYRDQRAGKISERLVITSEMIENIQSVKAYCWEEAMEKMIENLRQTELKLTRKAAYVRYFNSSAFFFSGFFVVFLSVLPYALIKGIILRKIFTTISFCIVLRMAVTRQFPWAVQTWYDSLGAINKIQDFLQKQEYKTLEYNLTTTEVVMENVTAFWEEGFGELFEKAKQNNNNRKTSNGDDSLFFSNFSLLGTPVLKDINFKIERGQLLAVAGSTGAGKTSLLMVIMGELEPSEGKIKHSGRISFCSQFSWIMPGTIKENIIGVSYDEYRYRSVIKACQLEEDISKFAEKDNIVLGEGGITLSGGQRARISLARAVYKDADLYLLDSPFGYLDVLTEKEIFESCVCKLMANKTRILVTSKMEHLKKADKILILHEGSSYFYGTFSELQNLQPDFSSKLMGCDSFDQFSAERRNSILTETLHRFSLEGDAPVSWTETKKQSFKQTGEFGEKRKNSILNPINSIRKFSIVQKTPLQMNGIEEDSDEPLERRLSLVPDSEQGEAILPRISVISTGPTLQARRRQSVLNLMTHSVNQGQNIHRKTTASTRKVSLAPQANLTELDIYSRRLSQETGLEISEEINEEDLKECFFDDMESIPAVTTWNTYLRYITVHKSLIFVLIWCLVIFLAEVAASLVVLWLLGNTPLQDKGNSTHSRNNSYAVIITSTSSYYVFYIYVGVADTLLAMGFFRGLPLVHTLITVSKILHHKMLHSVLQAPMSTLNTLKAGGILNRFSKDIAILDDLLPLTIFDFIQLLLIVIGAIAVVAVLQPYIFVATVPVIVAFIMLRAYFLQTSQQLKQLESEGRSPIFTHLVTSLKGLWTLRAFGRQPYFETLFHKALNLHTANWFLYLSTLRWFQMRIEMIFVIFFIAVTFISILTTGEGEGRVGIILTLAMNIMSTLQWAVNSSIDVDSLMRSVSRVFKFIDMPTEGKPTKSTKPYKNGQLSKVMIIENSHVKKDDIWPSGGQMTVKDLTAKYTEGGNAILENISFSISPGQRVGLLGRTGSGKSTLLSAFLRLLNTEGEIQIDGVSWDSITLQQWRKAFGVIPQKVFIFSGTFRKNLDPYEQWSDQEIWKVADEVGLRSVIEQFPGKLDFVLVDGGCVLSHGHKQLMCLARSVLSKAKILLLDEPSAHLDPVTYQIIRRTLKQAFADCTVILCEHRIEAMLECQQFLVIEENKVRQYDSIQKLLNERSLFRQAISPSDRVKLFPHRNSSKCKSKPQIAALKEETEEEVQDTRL

With `CC(C)c1ccc(N)cc1NC(=O)c1c[nH]c2ccccc2c1=O` [Compound 101, N-(5-amino-2-isopropyl-phenyl)-4-oxo-1H-quinoline-3-carboxamide] the EC50 was < 10 µM and the “% Activity” value was “++ (between 25% to 100%)”.
`O=C(Nc1ccccc1-c1nc(-c2ccc(Cl)cc2)no1)c1c[nH]c2ccccc2c1=O` [Compound 102, N-[2-[3-(4-chlorophenyl)-1,2,4-oxadiazol-5-yl]phenyl]-4-oxo-1H-quinoline-3-carboxamide] was tested, and the EC50 was 10 to 25 µM and the “% Activity” value was “++ (between 25% to 100%)”.
In the case of `CC(C)(C)c1cc(C(C)(C)C)c(NC(=O)c2c[nH]c3ccc(F)cc3c2=O)cc1O` [Compound 103, 6-fluoro-N-(5-hydroxy-2,4-ditert-butyl-phenyl)-4-oxo-1H-quinoline-3-carboxamide], the EC50 is reported as < 10 µM and the “% Activity” value is reported as “+++ (>100%)”.
With `Cc1cc2ccc(NC(=O)c3c[nH]c4ccccc4c3=O)cc2[nH]1` [Compound 104, N-(2-methyl-1H-indol-6-yl)-4-oxo-1H-quinoline-3-carboxamide] the EC50 was < 10 µM and the “% Activity” value was “++ (between 25% to 100%)”.
For `O=C(Nc1ccc2c(c1)NCCO2)c1c[nH]c2ccccc2c1=O` [Compound 105, 1,4-dihydro-N-(3,4-dihydro-2H-benzo[b][1,4]oxazin-6-yl)-4-oxoquinoline-3-carboxamide], the EC50 was 10 to 25 µM and the “% Activity” value was “++ (between 25% to 100%)”.
With `COc1cc(C#N)c(NC(=O)c2c[nH]c3ccccc3c2=O)cc1OC` [Compound 106, N-(2-cyano-4,5-dimethoxy-phenyl)-4-oxo-1H-quinoline-3-carboxamide] the EC50 was 25 to 60 µM and the “% Activity” value was “+ (<25%)”.
`CC(C)(C)OC(=O)N1CCc2ccc(NC(=O)c3c[nH]c4ccccc4c3=O)cc2C1` [Compound 107, 7-[(4-oxo-1H-quinolin-3-yl)carbonylamino]-1,2,3,4-tetrahydroisoquinoline-2-carboxylic acid tert-butyl ester] was tested, and the EC50 was 10 to 25 µM and the “% Activity” value was “++ (between 25% to 100%)”.
`CC(C)(C)OC(=O)N1CCC(C)(C)c2ccc(NC(=O)c3c[nH]c4ccccc4c3=O)cc21` [Compound 108, 4,4-dimethyl-7-[(4-oxo-1H-quinolin-3-yl)carbonylamino]-1,2,3,4-tetrahydroquinoline-1-carboxylic acid tert-butyl ester] was tested, and the EC50 was < 10 µM and the “% Activity” value was “++ (between 25% to 100%)”.
In the case of `CC(=O)N1CCCC(C)(C)c2ccc(NC(=O)c3c[nH]c4ccccc4c3=O)cc21` [Compound 109, N-(1-acetyl-2,3,4,5-tetrahydro-5,5-dimethyl-1H-benzo[b]azepin-8-yl)-1,4-dihydro-4-oxoquinoline-3-carboxamide], the “% Activity” value is reported as “++ (between 25% to 100%)”.
For `N#CCc1ccc(NC(=O)c2c[nH]c3ccccc3c2=O)cc1` [Compound 110, N-[4-(cyanomethyl)phenyl]-4-oxo-1H-quinoline-3-carboxamide], the EC50 was 25 to 60 µM and the “% Activity” value was “+ (<25%)”.
With `O=C(Nc1ccccc1C(F)(F)F)c1c[nH]c2ccccc2c1=O` [Compound 111, 4-oxo-N-[2-(trifluoromethyl)phenyl]-1H-quinoline-3-carboxamide] the EC50 was < 10 µM and the “% Activity” value was “++ (between 25% to 100%)”.
For `CCOc1ccc2ncc(C(=O)Nc3ccc4cc[nH]c4c3)c(O)c2c1` [Compound 112, 6-ethoxy-4-hydroxy-N-(1H-indol-6-yl)quinoline-3-carboxamide], the EC50 was < 10 µM and the “% Activity” value was “++ (between 25% to 100%)”.
`Cc1c[nH]c2cc(NC(=O)c3c[nH]c4ccccc4c3=O)ccc12` [Compound 113, N-(3-methyl-1H-indol-6-yl)-4-oxo-1H-quinoline-3-carboxamide] was tested, and the EC50 was < 10 µM and the “% Activity” value was “++ (between 25% to 100%)”.
For `CCOc1ccccc1-c1ccc(NC(=O)OC(C)(C)C)cc1NC(=O)c1c[nH]c2ccccc2c1=O` [Compound 114, [4-(2-ethoxyphenyl)-3-[(4-oxo-1H-quinolin-3-yl)carbonylamino]phenyl]aminoformic acid tert-butyl ester], the EC50 was < 10 µM and the “% Activity” value was “++ (between 25% to 100%)”.
`O=C(Nc1ccccc1-c1ccco1)c1c[nH]c2ccccc2c1=O` [Compound 115, N-[2-(2-furyl)phenyl]-4-oxo-1H-quinoline-3-carboxamide] was tested, and the EC50 was < 10 µM and the “% Activity” value was “++ (between 25% to 100%)”.
`O=C(Nc1ccc2cc[nH]c2c1)c1c[nH]c2cccc(O)c2c1=O` [Compound 116, 5-hydroxy-N-(1H-indol-6-yl)-4-oxo-1H-quinoline-3-carboxamide] was tested, and the EC50 was < 10 µM and the “% Activity” value was “++ (between 25% to 100%)”.
`CC(C)c1ccc(NC(=O)c2c[nH]c3ccccc3c2=O)cc1N(C)C` [Compound 117, N-(3-dimethylamino-4-isopropyl-phenyl)-4-oxo-1H-quinoline-3-carboxamide] was tested, and the EC50 was < 10 µM and the “% Activity” value was “++ (between 25% to 100%)”.
For `O=C(Nc1ccccc1-c1ccc2[nH]ccc2c1)c1c[nH]c2ccccc2c1=O` [Compound 118, N-[2-(1H-indol-5-yl)phenyl]-4-oxo-1H-quinoline-3-carboxamide], the “% Activity” value was “++ (between 25% to 100%)”.
In the case of `CCOC(=O)NCC(C)(C)c1ccc(NC(=O)c2c[nH]c3ccccc3c2=O)cc1` [Compound 119, [2-methyl-2-[4-[(4-oxo-1H-quinolin-3-yl)carbonylamino]phenyl]-propyl]aminoformic acid ethyl ester], the EC50 is reported as < 10 µM and the “% Activity” value is reported as “++ (between 25% to 100%)”.
With `COc1ccc(C)cc1NC(=O)c1c[nH]c2ccccc2c1=O` [Compound 120, N-(2-methoxy-5-methyl-phenyl)-4-oxo-1H-quinoline-3-carboxamide] the EC50 was 10 to 25 µM and the “% Activity” value was “++ (between 25% to 100%)”.
In the case of `COc1ccc(NC(=O)c2c[nH]c3ccccc3c2=O)cc1OC` [Compound 122, N-(3,4-dimethoxyphenyl)-4-oxo-1H-quinoline-3-carboxamide], the EC50 is reported as 25 to 60 µM and the “% Activity” value is reported as “+ (<25%)”.
`O=C(Nc1ccccc1-c1ccoc1)c1c[nH]c2ccccc2c1=O` [Compound 123, N-[2-(3-furyl)phenyl]-4-oxo-1H-quinoline-3-carboxamide] was tested, and the “% Activity” value was “++ (between 25% to 100%)”.
For `CC(C)(C)c1cc2cc[nH]c2cc1NC(=O)c1c[nH]c2ccc(F)cc2c1=O` [Compound 124, 6-fluoro-4-oxo-N-(5-tert-butyl-1H-indol-6-yl)-1H-quinoline-3-carboxamide], the EC50 was < 10 µM and the “% Activity” value was “+++ (>100%)”.
For `CCc1cccc(NC(=O)c2c[nH]c3ccccc3c2=O)n1` [Compound 125, N-(6-ethyl-2-pyridyl)-4-oxo-1H-quinoline-3-carboxamide], the EC50 was 10 to 25 µM and the “% Activity” value was “++ (between 25% to 100%)”.
In the case of `COCCOCC(C)(C)c1ccc(NC(=O)c2c[nH]c3ccccc3c2=O)cc1O` [Compound 126, N-[3-hydroxy-4-[2-(2-methoxyethoxy)-1,1-dimethyl-ethyl]-phenyl]-4-oxo-1H-quinoline-3-carboxamide], the EC50 is reported as < 10 µM and the “% Activity” value is reported as “++ (between 25% to 100%)”.
For `CCOC(=O)Nc1cc(NC(=O)c2c[nH]c3ccccc3c2=O)ccc1C(C)(C)C` [Compound 127, [5-[(4-oxo-1H-quinolin-3-yl)carbonylamino]-2-tert-butyl-phenyl]aminoformic acid ethyl ester], the EC50 was < 10 µM and the “% Activity” value was “++ (between 25% to 100%)”.
For `Cc1ccc2c(c1)c(=O)c(C(=O)Nc1ccccc1-c1ccccc1)cn2C` [Compound 128, 1,6-dimethyl-4-oxo-N-(2-phenylphenyl)-1H-quinoline-3-carboxamide], the EC50 was 25 to 60 µM and the “% Activity” value was “+ (<25%)”.
For `CCc1ccc(NC(=O)c2c[nH]c3ccccc3c2=O)cc1NC(=O)OC` [Compound 129, [2-ethyl-5-[(4-oxo-1H-quinolin-3-yl)carbonylamino]phenyl]aminoformic acid methyl ester], the EC50 was 10 to 25 µM and the “% Activity” value was “++ (between 25% to 100%)”.
In the case of `O=C(Nc1ccc2cc[nH]c2c1)c1cnc2cc(C(F)(F)F)cc(C(F)(F)F)c2c1O` [Compound 130, 4-hydroxy-N-(1H-indol-6-yl)-5,7-bis(trifluoromethyl)quinoline-3-carboxamide], the EC50 is reported as < 10 µM and the “% Activity” value is reported as “++ (between 25% to 100%)”.
For `Nc1cc(Cl)cc(NC(=O)c2c[nH]c3ccccc3c2=O)c1` [Compound 131, N-(3-amino-5-chloro-phenyl)-4-oxo-1H-quinoline-3-carboxamide], the “% Activity” value was “++ (between 25% to 100%)”.
For `CCOc1ccc(NC(C)=O)cc1NC(=O)c1c[nH]c2ccccc2c1=O` [Compound 132, N-(5-acetylamino-2-ethoxy-phenyl)-4-oxo-1H-quinoline-3-carboxamide], the EC50 was 25 to 60 µM and the “% Activity” value was “+ (<25%)”.
With `O=C(Nc1cc(Cl)cc(NS(=O)(=O)CCN2CCCCC2)c1)c1c[nH]c2ccccc2c1=O` [Compound 133, N-[3-chloro-5-[2-(1-piperidyl)ethylsulfonylamino]phenyl]-4-oxo-1H-quinoline-3-carboxamide] the EC50 was 10 to 25 µM and the “% Activity” value was “++ (between 25% to 100%)”.
With `C[S+]([O-])c1ccc(-c2ccccc2NC(=O)c2c[nH]c3ccccc3c2=O)cc1` (centres unmarked) [Compound 134, N-[2-(4-methylsulfinylphenyl)phenyl]-4-oxo-1H-quinoline-3-carboxamide] the EC50 was < 10 µM and the “% Activity” value was “++ (between 25% to 100%)”.
With `O=C(Nc1ccccc1-c1ccc2c(c1)OCO2)c1c[nH]c2ccccc2c1=O` [Compound 135, N-(2-benzo[1,3]dioxol-5-ylphenyl)-4-oxo-1H-quinoline-3-carboxamide] the EC50 was < 10 µM and the “% Activity” value was “+++ (>100%)”.
With `CC(C)(C)c1cc(NC(=O)c2c[nH]c3ccccc3c2=O)c(O)c(C(C)(C)C)c1` [Compound 136, N-(2-hydroxy-3,5-ditert-butyl-phenyl)-4-oxo-1H-quinoline-3-carboxamide] the EC50 was < 10 µM and the “% Activity” value was “++ (between 25% to 100%)”.
With `CN(c1ccc(F)cc1)S(=O)(=O)c1ccc2[nH]cc(C(=O)Nc3cc(O)c(C(C)(C)C)cc3C(C)(C)C)c(=O)c2c1` [Compound 137, 6-[(4-fluorophenyl)-methyl-sulfamoyl]-N-(5-hydroxy-2,4-ditert-butyl-phenyl)-4-oxo-1H-quinoline-3-carboxamide] the EC50 was < 10 µM and the “% Activity” value was “++ (between 25% to 100%)”.
